Inhibition data for three compounds are collected here from ChEMBL document CHEMBL3627608, “Crystal structures of human RIP2 kinase catalytic domain complexed with ATP-competitive inhibitors: Foundations for understanding inhibitor selectivity” (Bioorg Med Chem, 2015).

Assay [1] has as its target T1, Serine/threonine-protein kinase NLK (Homo sapiens) (UniProt Q9UBE8).
T1 sequence (whole entry): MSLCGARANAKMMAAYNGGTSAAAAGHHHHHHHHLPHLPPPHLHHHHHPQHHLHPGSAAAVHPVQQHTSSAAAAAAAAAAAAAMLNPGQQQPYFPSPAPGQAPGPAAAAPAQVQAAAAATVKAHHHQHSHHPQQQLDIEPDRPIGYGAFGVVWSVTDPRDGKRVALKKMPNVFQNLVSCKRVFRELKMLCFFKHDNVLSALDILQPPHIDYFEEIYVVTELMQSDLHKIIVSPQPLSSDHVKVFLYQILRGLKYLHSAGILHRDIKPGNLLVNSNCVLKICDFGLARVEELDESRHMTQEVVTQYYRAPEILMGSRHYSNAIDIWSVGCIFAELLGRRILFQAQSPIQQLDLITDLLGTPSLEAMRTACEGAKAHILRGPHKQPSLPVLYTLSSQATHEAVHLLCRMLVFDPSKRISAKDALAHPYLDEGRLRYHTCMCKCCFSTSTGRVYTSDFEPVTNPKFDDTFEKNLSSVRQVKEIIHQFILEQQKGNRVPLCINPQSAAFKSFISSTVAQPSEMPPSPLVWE
The experiment in a line: Inhibition of NLK (unknown origin) at 10 uM after 120 mins P33 radiolabeled kinase activity assay.

The target of assay [2] is T2, 3-phosphoinositide-dependent protein kinase 1 (Homo sapiens) (UniProt O15530).
T2 sequence (whole entry): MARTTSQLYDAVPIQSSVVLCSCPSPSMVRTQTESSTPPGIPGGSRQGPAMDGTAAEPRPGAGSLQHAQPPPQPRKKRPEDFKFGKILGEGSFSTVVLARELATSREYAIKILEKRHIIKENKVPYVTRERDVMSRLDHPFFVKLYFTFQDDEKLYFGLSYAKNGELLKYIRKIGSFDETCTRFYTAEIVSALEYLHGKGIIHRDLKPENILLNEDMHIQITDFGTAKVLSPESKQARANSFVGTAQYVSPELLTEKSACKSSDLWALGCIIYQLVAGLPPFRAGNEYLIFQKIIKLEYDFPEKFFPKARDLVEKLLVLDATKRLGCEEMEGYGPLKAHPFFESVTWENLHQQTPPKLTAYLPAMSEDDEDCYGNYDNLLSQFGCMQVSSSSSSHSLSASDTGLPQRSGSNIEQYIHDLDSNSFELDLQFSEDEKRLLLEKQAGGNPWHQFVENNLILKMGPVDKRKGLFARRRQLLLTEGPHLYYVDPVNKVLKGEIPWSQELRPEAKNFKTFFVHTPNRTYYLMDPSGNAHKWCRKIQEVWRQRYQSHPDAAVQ
Description: Inhibition of PDK1 (unknown origin) at 10 uM after 120 mins P33 radiolabeled kinase activity assay.

Assay [3] addresses Casein kinase I isoform epsilon (Homo sapiens) (UniProt P49674). The experiment in a line: Inhibition of CK1epsilon (unknown origin) at 10 uM after 120 mins P33 radiolabeled kinase activity assay.
In assay [4] the target is T3, Serine/threonine-protein kinase ULK3 (Homo sapiens) (UniProt Q6PHR2).
T3 sequence (whole entry): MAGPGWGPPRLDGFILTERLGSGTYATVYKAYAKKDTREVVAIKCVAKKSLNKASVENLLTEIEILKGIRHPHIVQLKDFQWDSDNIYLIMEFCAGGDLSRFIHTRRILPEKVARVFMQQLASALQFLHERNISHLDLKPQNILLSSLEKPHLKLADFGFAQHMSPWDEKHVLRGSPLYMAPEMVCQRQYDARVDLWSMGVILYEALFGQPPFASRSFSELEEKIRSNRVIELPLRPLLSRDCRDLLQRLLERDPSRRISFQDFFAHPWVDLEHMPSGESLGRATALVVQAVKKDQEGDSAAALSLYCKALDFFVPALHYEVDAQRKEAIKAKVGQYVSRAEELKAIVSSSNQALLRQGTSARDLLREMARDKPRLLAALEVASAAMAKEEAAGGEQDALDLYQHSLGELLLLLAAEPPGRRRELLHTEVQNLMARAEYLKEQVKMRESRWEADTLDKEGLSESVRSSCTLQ
The experiment in a line: Inhibition of ULK3 (unknown origin) at 10 uM after 120 mins P33 radiolabeled kinase activity assay.

Assay [5] deals with T4, TGF-beta receptor type-1 (Homo sapiens) (UniProt P36897).
T4 sequence (whole entry): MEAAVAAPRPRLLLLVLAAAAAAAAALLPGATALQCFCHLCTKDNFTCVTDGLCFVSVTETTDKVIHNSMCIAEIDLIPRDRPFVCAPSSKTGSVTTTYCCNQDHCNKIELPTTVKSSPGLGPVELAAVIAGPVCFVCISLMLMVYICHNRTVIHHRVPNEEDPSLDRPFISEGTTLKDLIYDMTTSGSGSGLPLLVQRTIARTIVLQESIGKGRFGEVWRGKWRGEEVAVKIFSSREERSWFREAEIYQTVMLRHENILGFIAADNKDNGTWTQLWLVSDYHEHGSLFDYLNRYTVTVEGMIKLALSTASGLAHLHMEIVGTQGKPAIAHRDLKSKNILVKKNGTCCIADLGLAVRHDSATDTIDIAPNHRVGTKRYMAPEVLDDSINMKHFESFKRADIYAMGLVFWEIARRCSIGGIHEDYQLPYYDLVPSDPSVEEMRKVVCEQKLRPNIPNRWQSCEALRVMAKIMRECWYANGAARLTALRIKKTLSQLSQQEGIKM
The experiment in a line: Inhibition of ALK5 (unknown origin) at 10 uM after 120 mins P33 radiolabeled kinase activity assay.

The structures appear in SMILES notation.

Chain of Casein kinase I isoform epsilon (Homo sapiens) (P49674 whole entry, looked up, canonical isoform): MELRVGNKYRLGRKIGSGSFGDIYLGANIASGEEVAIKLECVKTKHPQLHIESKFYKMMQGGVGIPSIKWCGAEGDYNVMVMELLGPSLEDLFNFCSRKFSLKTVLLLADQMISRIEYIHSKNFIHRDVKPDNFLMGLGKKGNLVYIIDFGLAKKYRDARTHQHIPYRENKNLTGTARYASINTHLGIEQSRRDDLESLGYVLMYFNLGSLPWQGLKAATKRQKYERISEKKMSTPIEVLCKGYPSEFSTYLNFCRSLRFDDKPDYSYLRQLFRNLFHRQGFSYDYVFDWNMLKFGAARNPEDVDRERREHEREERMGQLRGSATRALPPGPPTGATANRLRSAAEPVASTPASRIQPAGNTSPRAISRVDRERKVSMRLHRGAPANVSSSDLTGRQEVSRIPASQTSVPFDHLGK

By inhibition is commonly meant the change of the read-out against control, counted positive when it falls. Take `COCCNC(=O)c1ccc2c(c1)nc(-c1cnc(-c3ccc(Cl)cc3)[nH]1)n2CCOC`: the inhibition in assay [1] is 55.2%; in assay [2] it was 4.43%; in assay [3], 44.4%; in assay [4] it was -5.07%; in assay [5] it was -7.32%.
The like results for `CC(C)(C)c1cc(NC(=O)Nc2ccc(Oc3ccncc3)cc2)no1` were, in that order, 51.5%, 8.32%, 5.92%, 31.7% and -8.74%.
Take `CS(=O)(=O)c1cccc(Nc2nccc(-c3sc(N4CCOCC4)nc3-c3cccc(NS(=O)(=O)c4c(F)cccc4F)c3)n2)c1`: the inhibition in assay [1] came out at 88.6%; in assay [2] it was 7.26%; in assay [3], 36.8%; in assay [4], 89.6%; in assay [5], 69.6%.
